Patent US12077503B2, “Substituted cyclic amides and their use as herbicides” (FMC CORPORATION, priority 2015, dated 2024)

What was measured:
Format in all cases: in vivo
Kochia (Kochia scoparia) [1] = assay: Test A preemergence; conditions: Bassia scoparia, pre-emergence, 240 h, 0 to 100 scale where 0 is no effect and 100 is complete control, read-out: Kochia plant response rating; for pest or weed control at 31 g/ha: 31 g ai/ha, Preemergence; for pest or weed control at 125 g/ha: 125 g ai/ha, preemergence, visual injury rating, approximately 10 d
Method in brief: (§1)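 Each rating is a visual injury score from 0 to 100 given about 10 d after treatment, judged against untreated controls kept alongside in the greenhouse. In loam soil–sand blend, seeds got a preemergence directed soil spray, while postemergence plants were 2 to 10 cm tall at spraying.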

[2] = tested on: barnyardgrass (Echinochloa crus-galli); assay: Test A preemergence; conditions: Echinochloa crus-galli, pre-emergence, 240 h, 0 to 100 scale where 0 is no effect and 100 is complete control, read-out: Barnyardgrass plant response rating; for pest or weed control at 31 g/ha: 31 g ai/ha, Preemergence; for pest or weed control at 125 g/ha: 125 g ai/ha, preemergence, visual injury rating, approximately 10 d
Method in brief: as §1

[3] = tested on: giant foxtail (Setaria faberii); assay: Test A preemergence; conditions: Setaria faberi, pre-emergence, 240 h, 0 to 100 scale where 0 is no effect and 100 is complete control, read-out: Foxtail, Giant plant response rating; for pest or weed control at 31 g/ha: 31 g ai/ha, Preemergence; for pest or weed control at 125 g/ha: 125 g ai/ha, preemergence, visual injury rating, approximately 10 d
Method in brief: as §1

[4] = tested on: pigweed (Amaranthus retroflexus); assay: Test A preemergence; conditions: Amaranthus retroflexus, pre-emergence, 240 h, 0 to 100 scale where 0 is no effect and 100 is complete control, read-out: Pigweed plant response rating; for pest or weed control at 31 g/ha: 31 g ai/ha, Preemergence; for pest or weed control at 125 g/ha: 125 g ai/ha, preemergence, visual injury rating, approximately 10 d
[5] = tested on: ragweed (common ragweed, Ambrosia elatior); assay: Test A preemergence; conditions: Ambrosia artemisiifolia, pre-emergence, 240 h, 0 to 100 scale where 0 is no effect and 100 is complete control, read-out: Ragweed plant response rating; for pest or weed control at 31 g/ha: 31 g ai/ha, Preemergence; for pest or weed control at 125 g/ha: 125 g ai/ha, preemergence, visual injury rating, approximately 10 d
Method in brief: as §1

[6] = tested on: ryegrass, Italian (Italian ryegrass, Lolium multiflorum); assay: Test A preemergence; conditions: Lolium multiflorum, pre-emergence, 240 h, 0 to 100 scale where 0 is no effect and 100 is complete control, read-out: Ryegrass, Italian plant response rating; for pest or weed control at 31 g/ha: 31 g ai/ha, Preemergence; for pest or weed control at 125 g/ha: 125 g ai/ha, preemergence, visual injury rating, approximately 10 d
Method in brief: as §1

[7] = tested on: Galium (catchweed bedstraw, Galium aparine); assay: Test A postemergence; conditions: Galium, post-emergence, 240 h, read-out: Galium plant response rating (0 to 100 scale); for pest or weed control at 125 g/ha: 125 g ai/ha, postemergence, visual injury vs untreated controls after approx. 10 d, 0 = no effect, 100 = complete control; for pest or weed control at 31 g/ha: Postemergence, 31 g ai/ha, 0 is no effect, 100 is complete control
Method in brief: as §1

Kochia (Kochia scoparia) [8] = assay: Test A postemergence; conditions: Bassia scoparia, post-emergence, 240 h, read-out: Kochia plant response rating (0 to 100 scale); for pest or weed control at 125 g/ha: 125 g ai/ha, postemergence, visual injury vs untreated controls after approx. 10 d, 0 = no effect, 100 = complete control; for pest or weed control at 31 g/ha: Postemergence, 31 g ai/ha, 0 is no effect, 100 is complete control
Method in brief: as §1

[9] = tested on: barnyardgrass (Echinochloa crus-galli); assay: Test A postemergence; conditions: Echinochloa crus-galli, post-emergence, 240 h, read-out: Barnyardgrass plant response rating (0 to 100 scale); for pest or weed control at 125 g/ha: 125 g ai/ha, postemergence, visual injury vs untreated controls after approx. 10 d, 0 = no effect, 100 = complete control; for pest or weed control at 31 g/ha: Postemergence, 31 g ai/ha, 0 is no effect, 100 is complete control
Method in brief: as §1

[10] = tested on: blackgrass (Alopecurus myosuroides); assay: Test A postemergence; conditions: Alopecurus myosuroides, post-emergence, 240 h, read-out: Blackgrass plant response rating (0 to 100 scale); for pest or weed control at 125 g/ha: 125 g ai/ha, postemergence, visual injury vs untreated controls after approx. 10 d, 0 = no effect, 100 = complete control; for pest or weed control at 31 g/ha: Postemergence, 31 g ai/ha, 0 is no effect, 100 is complete control
Method in brief: as §1

corn (Zea mays) = assay: Test A postemergence; conditions: Zea mays, post-emergence, 240 h, read-out: Corn plant response rating (0 to 100 scale); for plant injury at 125 g/ha: 125 g ai/ha, postemergence, visual injury vs untreated controls after approx. 10 d, 0 = no effect, 100 = complete control; for plant injury at 31 g/ha: Postemergence, 31 g ai/ha, 0 is no effect, 100 is complete control
Method in brief: as §1

[11] = tested on: giant foxtail (Setaria faberii); assay: Test A postemergence; conditions: Setaria faberi, post-emergence, 240 h, read-out: Foxtail, Giant plant response rating (0 to 100 scale); for pest or weed control at 125 g/ha: 125 g ai/ha, postemergence, visual injury vs untreated controls after approx. 10 d, 0 = no effect, 100 = complete control; for pest or weed control at 31 g/ha: Postemergence, 31 g ai/ha, 0 is no effect, 100 is complete control
Method in brief: as §1

[12] = tested on: pigweed (Amaranthus retroflexus); assay: Test A postemergence; conditions: Amaranthus retroflexus, post-emergence, 240 h, read-out: Pigweed plant response rating (0 to 100 scale); for pest or weed control at 125 g/ha: 125 g ai/ha, postemergence, visual injury vs untreated controls after approx. 10 d, 0 = no effect, 100 = complete control; for pest or weed control at 31 g/ha: Postemergence, 31 g ai/ha, 0 is no effect, 100 is complete control
Method in brief: as §1

[13] = tested on: ragweed (common ragweed, Ambrosia elatior); assay: Test A postemergence; conditions: Ambrosia artemisiifolia, post-emergence, 240 h, read-out: Ragweed plant response rating (0 to 100 scale); for pest or weed control at 125 g/ha: 125 g ai/ha, postemergence, visual injury vs untreated controls after approx. 10 d, 0 = no effect, 100 = complete control; for pest or weed control at 31 g/ha: Postemergence, 31 g ai/ha, 0 is no effect, 100 is complete control
Method in brief: as §1

[14] = tested on: ryegrass, Italian (Italian ryegrass, Lolium multiflorum); assay: Test A postemergence; conditions: Lolium multiflorum, post-emergence, 240 h, read-out: Ryegrass, Italian plant response rating (0 to 100 scale); for pest or weed control at 125 g/ha: 125 g ai/ha, postemergence, visual injury vs untreated controls after approx. 10 d, 0 = no effect, 100 = complete control; for pest or weed control at 31 g/ha: Postemergence, 31 g ai/ha, 0 is no effect, 100 is complete control
Method in brief: as §1

[15] = tested on: wheat (Triticum aestivum); assay: Test A postemergence; conditions: Triticum aestivum, post-emergence, 240 h, Postemergence, 31 g ai/ha; 0 is no effect, 100 is complete control; read-out: Wheat plant response rating (0 to 100 scale)
Method in brief: as §1

[16] = tested on: barnyardgrass (Echinochloa crus-galli); assay: Test B flooded paddy test; conditions: Echinochloa crus-galli, 250 g ai/ha, Flood; 0 to 100 scale where 0 is no effect and 100 is complete control; read-out: Barnyardgrass plant response rating
Method in brief: (§2)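 Response scored visually against untreated controls, 0 = no effect and 100 = complete control, 13–15 d after treatment in the greenhouse. Compounds added to paddy water held 3 cm above soil surface. Treatment given at 2-leaf stage.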

[17] = tested on: ducksalad (Heteranthera limosa); assay: Test B flooded paddy test; conditions: Heteranthera limosa, 250 g ai/ha, Flood; 0 to 100 scale where 0 is no effect and 100 is complete control; read-out: Ducksalad plant response rating
Method in brief: as §2

rice (Oryra sativa) = assay: Test B flooded paddy test; conditions: Oryza sativa, 250 g ai/ha, Flood; 0 to 100 scale where 0 is no effect and 100 is complete control; read-out: Rice plant response rating
Method in brief: as §2

[18] = tested on: sedge, umbrella (small-flower umbrella sedge, Cyperus difformis); assay: Test B flooded paddy test; conditions: Cyperus difformis, 250 g ai/ha, Flood; 0 to 100 scale where 0 is no effect and 100 is complete control; read-out: Sedge, Umbrella plant response rating
Method in brief: as §2

SMILES	pest or weed control at 31 g/ha (Kochia (Kochia scoparia) [1]) [%]	pest or weed control at 125 g/ha (Kochia (Kochia scoparia) [1]) [%]	pest or weed control at 31 g/ha [2] [%]	pest or weed control at 125 g/ha [2] [%]	pest or weed control at 31 g/ha [3] [%]	pest or weed control at 125 g/ha [3] [%]	pest or weed control at 31 g/ha [4] [%]	pest or weed control at 125 g/ha [4] [%]	pest or weed control at 31 g/ha [5] [%]	pest or weed control at 125 g/ha [5] [%]	pest or weed control at 31 g/ha [6] [%]	pest or weed control at 125 g/ha [6] [%]	pest or weed control at 125 g/ha [7] [%]	pest or weed control at 31 g/ha [7] [%]	pest or weed control at 125 g/ha (Kochia (Kochia scoparia) [8]) [%]	pest or weed control at 31 g/ha (Kochia (Kochia scoparia) [8]) [%]	pest or weed control at 125 g/ha [9] [%]	pest or weed control at 31 g/ha [9] [%]	pest or weed control at 125 g/ha [10] [%]	pest or weed control at 31 g/ha [10] [%]	other results
O=C1NC[C@H](c2ccc(Cl)c(F)c2)[C@H]1C(=O)Nc1cccc(F)c1F [Compound 1262]	20	60	70	90	90	90	0	50	0	0	0	0	70	30	50	20	90	70	50	0	plant injury at 125 g/ha (corn (Zea mays)): 60%; plant injury at 31 g/ha (corn (Zea mays)): 20%; pest or weed control at 125 g/ha [11]: 80%; pest or weed control at 31 g/ha [11]: 70%; pest or weed control at 125 g/ha [12]: 70%; pest or weed control at 31 g/ha [12]: 30%; pest or weed control at 125 g/ha [13]: 30%; pest or weed control at 31 g/ha [13]: 0%; pest or weed control at 125 g/ha [14]: 20%; pest or weed control at 31 g/ha [14]: 0%; plant injury at 31 g/ha [15]: 0%; pest or weed control at 250 g/ha [16]: 65%; pest or weed control at 250 g/ha [17]: 100%; pest or weed control at 250 g/ha (rice (Oryra sativa)): 10%; pest or weed control at 250 g/ha [18]: 0%
Cn1ccc2ccc([C@H]3CNC(=O)[C@@H]3C(=O)Nc3cccc(F)c3F)cc21 [Compound 1263]	0	0	0	0	0	0	0	0	0	0	0	0	0	0	0	0	0	0	0	0	plant injury at 125 g/ha (corn (Zea mays)): 0%; plant injury at 31 g/ha (corn (Zea mays)): 0%; pest or weed control at 125 g/ha [11]: 0%; pest or weed control at 31 g/ha [11]: 0%; pest or weed control at 125 g/ha [12]: 0%; pest or weed control at 31 g/ha [12]: 0%; pest or weed control at 125 g/ha [13]: 0%; pest or weed control at 31 g/ha [13]: 0%; pest or weed control at 125 g/ha [14]: 0%; pest or weed control at 31 g/ha [14]: 0%; plant injury at 31 g/ha [15]: 0%; pest or weed control at 250 g/ha [16]: 0%; pest or weed control at 250 g/ha [17]: 30%; pest or weed control at 250 g/ha (rice (Oryra sativa)): 0%; pest or weed control at 250 g/ha [18]: 0%
